# Assay results published in PMC6186498 (Toxicology, 2018).
# Like-named read-outs stand apart in the source and are kept apart here. Marks after values point to notes of the source that are not given here.
# Key:
# [1] = for flux through oxidation metabolism pathway over that through conjugation: across all mouse strains examined; for overall flux of glutathione conjugation expressed as dose: after equimolar treatment of TCE or PCE; for yield through glutathione conjugation pathway as % of that through oxidative pathway: range given for TCE and PCE together, approximately; for fraction of the total administered dose remaining unmetabolized until excretion: model estimate at steady state; for TCA(%), percentage of administered TCE excreted in urine / TCOH (%): This study (% estimated), 800 mg/kg oral, M
# [2] = human, cited from earlier work
# [3] = cited from earlier work; for inter-strain variability of TCA levels in liver, GSD: Collaborative Cross mouse population
# [4] = cited from earlier work; for carcinogenicity classification by IARC: ref Guha et al. 2012; for carcinogenicity classification by US EPA: ref U.S. EPA 2011a, b
# [5] = cited from earlier work
# kidney = settings: cited from earlier work
# [6] = at low doses; ref Chiu et al. 2009; cited from earlier work
# [7] = mean ± SD, average of all strains, single oral dose 6 mmole/kg
# [8] = range over strains, model estimate
# [9] = 100 mg/kg oral, PBPK model estimate, ref Chiu et al 2011
# [10] = 1 ppm inhalation, M, ref Chiu et al 2006
# [11] = 10 ppm inhalation, PBPK model estimate, ref Chiu et al 2011
# [12] = 100 mg/kg oral, mice, PBPK model estimate, ref Chiu et al 2011
# [13] = 300 mg/kg oral, mice C57BL/6J, M, ref Cichocki et al 2017
# [14] = 10 ppm inhalation, mice, PBPK model estimate, ref Chiu et al 2011
# [15] = 100 mg/kg oral, rat, PBPK model estimate, ref Chiu et al 2011
# [16] = 10 ppm inhalation, rat, PBPK model estimate, ref Chiu et al 2011
# [17] = model-derived AUCs across strains
# [18] = 1 ppm inhalation, M, PBPK model estimate, ref Chiu et al 2009
# [19] = 70 ppm inhalation, M, ref Monster 1976
# [20] = 70 ppm inhalation, M, ref Monster 1979
# [21] = 200 mg/kg stomach tube, mice NMRI, F, ref Dekant et al. 1984
# [22] = 500 mg/kg oral, mice B6C3F1/J, M, ref Green and Prout 1985
# [23] = 600 mg/kg oral, mice B6C3F1/J, M, ref Larson and Bull 1992
# [24] = 1000 mg/kg oral, mice, PBPK model estimate, ref Chiu et al 2009
# [25] = 2100 mg/kg oral, mice B6C3F1/J, M, PBPK model estimate, ref Chiu et al 2014
# [26] = 200 mg/kg stomach tube, rat Wistar, F, ref Dekant et al. 1984
# [27] = 500 mg/kg oral, rat Osborne-Mendal, M, ref Green and Prout 1985
# [28] = 600 mg/kg oral, rat Sprague-Dawley, M, ref Larson and Bull 1992
# [29] = 100 ppm inhalation, rat, PBPK model estimate, ref Chiu et al 2009
smiles,measurement,setting,value
"ClC(Cl)=C(Cl)Cl [PCE, tetrachloroethylene]",flux through oxidation metabolism pathway over that through conjugation,[1],26–34 fold
same,overall flux of glutathione conjugation expressed as dose,[1],2.9 to 4.5 mg/kg
same,"First order rate constant, Elimination T/PCE→",[1]; [7],0.17 ± 0.04 h⁻¹
same,"First order rate constant, GSH conjugation T/PCE→D/TCVG",[1]; [7],(460±230)*10^−6 h^−1
same,"First order rate constant, Oxidation T/PCE→TCA",[1]; [7],0.014 ± 0.003 h⁻¹
same,yield through glutathione conjugation pathway as % of that through oxidative pathway,[1],0.033%−3.3
same,portion of the parent compound that undergoes metabolism,[1]; range over strains,6.6%–9.7
same,estimated fraction of the reactive species formation from cysteine conjugates,[1]; [8],46.7% to 52.6
same,fraction of the total administered dose remaining unmetabolized until excretion,[1]; range over strains,90.3% to 93.5
same,GSH conjugation (%),[2]; [9],18%
same,Oxidation to GSH,[2]; [9],0.1
same,"TCA (%), percentage of administered dose excreted in urine",[2]; [9],1.8%
same,"TCA (%), percentage of administered dose excreted in urine",[2]; [10],0.2–0.8%
same,Oxidation to GSH,"[2]; 10 ppm inhalation, M&F, ref Volkel et al 1998",107.7
same,GSH conjugation (%),[2]; [11],9.4%
same,Oxidation to GSH,[2]; [11],0.1
same,"TCA (%), percentage of administered dose excreted in urine",[2]; [11],0.98%
same,Oxidation to GSH,"[2]; 20 ppm inhalation, M&F, ref Volkel et al 1998",89.1
same,Oxidation to GSH,"[2]; 40 ppm inhalation, M&F, ref Volkel et al 1998",96.3
same,"TCA (%), percentage of administered dose excreted in urine","[2]; 72 ppm inhalation, M, ref Monster 1979",2%
same,GSH conjugation (%),[3]; [12],0.07%
same,Oxidation to GSH,[3]; [12],500
same,"TCA (%), percentage of administered dose excreted in urine",[3]; [12],35%
same,GSH conjugation (%),[3]; [13],0.79%
same,Oxidation to GSH,[3]; [13],7.5
same,"TCA (%), percentage of administered dose excreted in urine",[3]; [13],5.9%
same,GSH conjugation (%),[3]; [14],0.02%
same,Oxidation to GSH,[3]; [14],600
same,"TCA (%), percentage of administered dose excreted in urine",[3]; [14],12%
same,"inter-strain variability of TCA levels in liver, GSD","[3]; single oral dose of PCE, ref Cichocki et al. 2017b",1.64
same,exhalation fraction of PCE,"[3]; mice orally dosed with 500 mg/kg 14C-labelled PCE, ref Schumann et al. 1980",82.6%
same,carcinogenicity classification by IARC,[4],probably carcinogenic to humans
same,carcinogenicity classification by US EPA,[4],likely to be a human carcinogen
same,GSH conjugation (%),[5]; [15],0.6%
same,Oxidation to GSH,[5]; [15],14.8
same,"TCA (%), percentage of administered dose excreted in urine",[5]; [15],8.9%
same,Oxidation to GSH,"[5]; 10 ppm inhalation, rat Wistar, M&F, ref Volkel et al 1998",623.6
same,GSH conjugation (%),[5]; [16],0.2%
same,Oxidation to GSH,[5]; [16],19.5
same,"TCA (%), percentage of administered dose excreted in urine",[5]; [16],3.9%
same,Oxidation to GSH,"[5]; 20 ppm inhalation, rat Wistar, M&F, ref Volkel et al 1998",540.6
same,Oxidation to GSH,"[5]; 40 ppm inhalation, rat Wistar, M&F, ref Volkel et al 1998",316.4
"N[C@@H](CSC(Cl)=CCl)C(=O)O [DCVC, S-(1,2-dichlorovinyl)-cysteine]",lowest dose with some adverse kidney effects observable,kidney; ref Shirai et al. 2012,1 mg/kg
"N[C@@H](CSC(Cl)=C(Cl)Cl)C(=O)O [TCVC, S-(1,2,2-trichlorovinyl)-L-cysteine]",doses at which most studies reported kidney effects,"kidney; directly administered cysteine conjugates, acute, sub-acute and sub-chronic exposure, ref Birner et al. 1997, Shirai et al. 2012, Vaidya et al. 2003",above 10 mg/kg
same,comparative nephrotoxicity of TCVC and DCVC,"kidney; equimolar doses compared, ref Birner et al. 1997",more nephrotoxic than DCVC
"OCC(Cl)(Cl)Cl [TCOH, trichloroethanol]","AUC0–36 of TCOH compared to that of TCA, brain","[1]; TCE-treated mice, brain",22.7–53.1%
same,"AUC0–36 of TCOH compared to that of TCA, kidney","[1]; TCE-treated mice, kidney",266–322%
same,tissue in which TCOH is most abundant,"[1]; TCE-treated mice, liver, kidney, brain, lung, serum examined",most abundant in kidney
same,"AUC0–36 of TCOH compared to that of TCA, lung","[1]; TCE-treated mice, lung",49.8–68.7%
same,"AUC0–36 of TCOH compared to that of TCA, serum","[1]; TCE-treated mice, serum",35.7–60%
"ClC=C(Cl)Cl [TCE, Trichloroethylene]","AUC0–36 of TCE as compared to AUC0–36 of PCE, kidney","[1]; B6C3F1/J mice, kidney",2.0%
same,"AUC0–36 of TCE as compared to AUC0–36 of PCE, liver","[1]; B6C3F1/J mice, liver",43.9%
same,"AUC0–36 of TCE as compared to AUC0–36 of PCE, lung","[1]; B6C3F1/J mice, lung",36.2%
same,"AUC0–36 of TCE as compared to AUC0–36 of PCE, serum","[1]; B6C3F1/J mice, serum",39.8%
same,"TCA(%), percentage of administered TCE excreted in urine",[1]; mice B6C3F1/J,5.8%
same,TCOH (%),[1]; mice B6C3F1/J,21%
same,"TCA(%), percentage of administered TCE excreted in urine",[1]; mice C57BL/6J,3.5%
same,TCOH (%),[1]; mice C57BL/6J,12%
same,"TCA(%), percentage of administered TCE excreted in urine",[1]; mice NZW/LacJ,7.1%
same,TCOH (%),[1]; mice NZW/LacJ,31%
same,flux through oxidation metabolism pathway over that through conjugation,[1],"1,200–3,800 fold"
same,overall flux of glutathione conjugation expressed as dose,[1],0.13 to 0.17 mg/kg
same,elimination constant for n-acetylcysteine conjugates in TCE-treated as compared to PCE-treated mice,[1]; higher,1.5 fold
same,TCE elimination rate constant relative to that for PCE,[1]; higher than PCE,2.8 fold
same,formation rate constant of TCA (KTCA) in TCE-treated versus PCE-treated mice,[1]; higher than in PCE-treated mice,2.4 fold
same,"First order rate constant, Elimination NAcT/DCVC→",[1]; [7],23.8 ± 10.5 h⁻¹
same,"First order rate constant, Elimination T/PCE→",[1]; [7],0.49 ± 0.12 h⁻¹
same,"First order rate constant, Elimination TCA→",[1]; [7],0.05 ± 0.02 h⁻¹
same,"First order rate constant, Elimination TCOH→",[1]; [7],0.49 ± 0.13 h⁻¹
same,"First order rate constant, GSH conjugation D/TCVC→NAcD/TCVC",[1]; [7],73.4 ± 17.4 h⁻¹
same,"First order rate constant, GSH conjugation D/TCVC→Reactive species",[1]; [7],1.69 ± 0.45 h⁻¹
same,"First order rate constant, GSH conjugation D/TCVG→D/TCVC",[1]; [7],0.30 ± 0.07 h⁻¹
same,"First order rate constant, GSH conjugation T/PCE→D/TCVG",[1]; [7],(3.5±1.1)*10^−6 h^−1
same,"First order rate constant, Oxidation T/PCE→TCA",[1]; [7],0.034 ± 0.010 h⁻¹
same,"First order rate constant, Oxidation T/PCE→TCOH",[1]; [7],0.13 ± 0.04 h⁻¹
same,"inter-strain variability of AUC of glutathione conjugation metabolites, GSD",[1]; [17],1.04−1.92
same,"inter-strain variability of AUC of oxidative metabolites (TCA and TCOH), GSD",[1]; [17],1.24−2.04
same,"AUC0–36 of TCE as compared to AUC0–36 of PCE, brain","[1]; mouse, in vivo",29.0%
same,elimination rate constant (Ke) of TCA in TCE-treated mice as % of that in PCE-treated mice,"[1]; mouse, in vivo",62.5%
same,yield through glutathione conjugation pathway as % of that through oxidative pathway,[1],0.033%−3.3
same,portion of the parent compound that undergoes metabolism,[1]; range over strains,15.7%−38.3
same,"Excreted TCA, % of the total dose",[1]; [8],3.5%−7.1
same,"TCOH, % of the total dose",[1]; [8],12.2−31.2%
same,estimated fraction of the reactive species formation from cysteine conjugates,[1]; [8],2.1% to 2.4
same,fraction of the total administered dose remaining unmetabolized until excretion,[1]; range over strains,61.7% to 84.3
same,AUC0–36 of TCA in TCE-treated mice as compared to PCE-treated mice,"[1]; serum, liver, brain, and lung, except for C57BL/6J mice, higher",1.2–1.7 fold
same,GSH conjugation (%),[2]; [18],5%
same,Oxidation to GSH,[2]; [18],7.6
same,"TCA(%) and TCOH (%), one cell spanning both columns",[2]; [18],38%
same,"TCA(%), percentage of administered TCE excreted in urine",[2]; [10],1–2%
same,TCOH (%),[2]; [10],16–28%
same,"TCA(%), percentage of administered TCE excreted in urine",[2]; [19],18%
same,TCOH (%),[2]; [19],39%
same,"TCA(%), percentage of administered TCE excreted in urine",[2]; [20],21%
same,TCOH (%),[2]; [20],43%
same,"TCA(%), percentage of total urinary metabolite calculated based on radioactivity",[3]; [21],0.1 ^* %
same,"TCOH (%), percentage of total urinary metabolite calculated based on radioactivity",[3]; [21],94.3 ^* %
same,"TCA(%), percentage of total urinary metabolite calculated based on radioactivity",[3]; [22],7.2 ^* %
same,"TCOH (%), percentage of total urinary metabolite calculated based on radioactivity",[3]; [22],91.1 ^* %
same,"TCA(%), percentage of administered TCE excreted in urine",[3]; [23],3.9%
same,TCOH (%),[3]; [23],31%
same,GSH conjugation (%),[3]; [24],0.2%
same,Oxidation to GSH,[3]; [24],450
same,"TCA(%) and TCOH (%), one cell spanning both columns",[3]; [24],90%
same,GSH conjugation (%),[3]; [25],0.065%
same,Oxidation to GSH,[3]; [25],290
same,"TCA(%), percentage of administered TCE excreted in urine",[3]; [25],4.4%
same,"inter-strain variability of TCA levels in liver, GSD","[3]; single oral dose of TCE, ref Venkatratnam et al. 2017",2.24
same,glutathione conjugation metabolites of TCE in rodents as % of that in humans,[6],approximately 1%
same,carcinogenicity classification by IARC,[4],carcinogenic to humans
same,carcinogenicity classification by US EPA,[4],carcinogenic to humans
same,"TCA(%), percentage of total urinary metabolite calculated based on radioactivity",[5]; [26],15.3 ^* %
same,"TCOH (%), percentage of total urinary metabolite calculated based on radioactivity",[5]; [26],73.6 ^* %
same,"TCA(%), percentage of total urinary metabolite calculated based on radioactivity",[5]; [27],6.3 ^* %
same,"TCOH (%), percentage of total urinary metabolite calculated based on radioactivity",[5]; [27],90.1 ^* %
same,"TCA(%), percentage of administered TCE excreted in urine",[5]; [28],4.1%
same,TCOH (%),[5]; [28],23.2%
same,GSH conjugation (%),[5]; [29],0.06%
same,Oxidation to GSH,[5]; [29],666.7
same,"TCA(%) and TCOH (%), one cell spanning both columns",[5]; [29],40%
same,"TCA(%), percentage of administered TCE excreted in urine","[5]; 505 ppm inhalation, rat F344, M, PBPK model estimate, ref Fisher et al. 1991",6%
